Laboratory results published in patent US11746116B2, “Antibiotic resistance breakers” (KING'S COLLEGE LONDON, priority 2017, dated 2023).
In brackets after ≈: the same amount, converted by molar mass. Read-outs that look alike come from different tables or passages of the source.

Legend:
Assay in all cases: MIC, microdilution broth method
VRE12201 = assay type: cell-based, Enterococcus faecalis; conditions: for MIC, VRE12201: ESKAPE panel, Gram-positive
KP13368 = assay type: cell-based; conditions: for MIC, KP13368: ESKAPE panel, Gram-negative
AYE = assay type: cell-based, Acinetobacter baumannii; conditions: for MIC, AYE: ESKAPE panel, Gram-negative
EC12923 = assay type: cell-based; conditions: for MIC, EC12923: ESKAPE panel, Gram-negative
M6 = assay type: cell-based; conditions: for MIC, M6: ESKAPE panel, Gram-negative
VSE775 = assay type: cell-based, Enterococcus faecalis; design: MIC, VSE775: unit not given beside the values; conditions: for MIC, VSE775: ESKAPE panel, Gram-positive
EMRSA16 = assay type: cell-based, Staphylococcus aureus
EMRSA15 = assay type: cell-based, Staphylococcus aureus
MSSA9144 = assay type: cell-based, Staphylococcus aureus; conditions: for MIC, MSSA9144: ESKAPE panel, Gram-positive
Ab17978 = assay type: cell-based; conditions: for MIC, Ab17978: ESKAPE panel, Gram-negative
PA01 = assay type: cell-based, Pseudomonas aeruginosa; conditions: for MIC, PA01: ESKAPE panel, Gram-negative
VRE12204 = assay type: cell-based, Enterococcus faecium; conditions: in µg/mL; for MIC, VRE12204: ESKAPE panel, Gram-positive; for MIC: VRE12204
PA13437 = assay type: cell-based; conditions: for MIC, PA13437: ESKAPE panel, Gram-negative; for MIC: PA13437
[1] = ESKAPE panel, Gram-positive, in µg/mL
[2] = KP13368, Normal (no PMBN), in µg/mL
[3] = AYE, Normal (no PMBN), in µg/mL
[4] = Ab17978, Normal (no PMBN), in µg/mL
[5] = PA01, Normal (no PMBN), in µg/mL

Row | Compound | MIC, VRE12201 (VRE12201; in µg/mL) | MIC, KP13368 (KP13368) | MIC, AYE (AYE; in µg/mL) | MIC, EC12923 (EC12923; in µg/mL) | MIC, M6 (M6; in µg/mL) | MIC, VSE775 (VSE775) | MIC, EMRSA16 (EMRSA16; [1]) | MIC, EMRSA15 (EMRSA15; [1]) | MIC, MSSA9144 (MSSA9144; in µg/mL) | MIC, Ab17978 (Ab17978; in µg/mL) | MIC, PA01 (PA01; in µg/mL) | MIC, VRE12204 (VRE12204) | MIC, PA13437 (PA13437) | MIC (VRE12201; VRE12201, in µg/mL) | MIC (KP13368; [2]) | MIC (M6; M6, Normal (no PMBN), in µg/mL) | MIC (VSE775; VSE775, in µg/mL) | MIC (EMRSA16; EMRSA16, in µg/mL) | MIC (EMRSA15; EMRSA15, in µg/mL) | MIC (MSSA9144; MSSA9144, in µg/mL) | also measured
1 | C[C@H]1COc2c(N3CC[C@@H](Nc4cnccn4)C3)c(F)cc3c(=O)c(C(=O)O)cn1c23 [KSN-BL1, (S)-9-fluoro-3-methyl-7-oxo-10-((R)-3-(pyrazin-2-ylamino)pyrrolidin-1-yl)-2,3-dihydro-7H-[1,4]oxazino[2,3,4-ij]quinoline-6-carboxylic acid] | ≤0.125 | 8 µg/mL (≈ 18.8 µM) | 8 | 0.25-0.5 | 0.5 | ≤0.125 | 1 | 1 | ≤0.125 | 0.25 | 4 | 0.5 | – | – | – | – | – | – | – | – | MIC (VRE12201; Enterococcus faecalis, Enterococcus (VRE12201), Gram-Positive, read-out: MIC): ≤ 0.125 µg/mL; MIC (KP13368; Klebsiella pneumoniae (KP13368), Gram-Negative, read-out: MIC): 8 µg/mL (≈ 18.8 µM); MIC (AYE; Acinetobacter baumannii (AYE), Gram-Negative, read-out: MIC): 8 µg/mL (≈ 18.8 µM); MIC (EC12923; Escherichia coli (EC12923), Gram-Negative, read-out: MIC): 0.25 µg/mL (≈ 0.588 µM); MIC (M6; Klebsiella pneumoniae (M6), Gram-Negative, read-out: MIC): 0 to 5 µg/mL; MIC (VSE775; Enterococcus faecalis, Enterococcus (VRE775), Gram-Positive, read-out: MIC): ≤ 0.125 µg/mL; MIC, EMRSA16 (EMRSA16; EMRSA16 (Table 16, role of the terminal pyrimidine ring), in µg/mL): 1; MIC (EMRSA16; Staphylococcus aureus (EMRSA16), Gram-Positive (Table 14), read-out: MIC): 1 µg/mL (≈ 2.35 µM); MIC, EMRSA15 (EMRSA15; EMRSA15 (Table 16, role of the terminal pyrimidine ring), in µg/mL): 1; MIC (EMRSA15; Staphylococcus aureus, Staphylococcus aureus (EMRSA15), Gram-Positive (Table 14), read-out: MIC): 1 µg/mL (≈ 2.35 µM); MIC (MSSA9144; Staphylococcus aureus (MSSA9144), Gram-Positive, read-out: MIC): ≤ 0.125 µg/mL; MIC (Ab17978; Acinetobacter baumannii (AB17978), Gram-Negative, read-out: MIC): 0.25 µg/mL (≈ 0.588 µM); MIC (PA01; Pseudomonas aeruginosa (PA01), Gram-Negative, read-out: MIC): 4 µg/mL (≈ 9.4 µM)
2 | C[C@H]1COc2c(N3CC[C@H](Nc4ncccn4)C3)c(F)cc3c(=O)c(C(=O)O)cn1c23 [KSN-L19] | 1 | > 32 µg/mL | >32 | 4 | 4 | 2 | 8 | 8 | 0.25 | 4 | >32 | 4 | > 32 µg/mL | – | – | – | – | – | – | – | –
3 | C[C@H]1COc2c(N3CC[C@H](Nc4cc(NC5CC5)ncn4)C3)c(F)cc3c(=O)c(C(=O)O)cn1c23 [KSN-L21, (S)-10-((S)-3-((6-(cyclopropylamino)pyrimidin-4-yl)amino)pyrrolidin-1-yl)-9-fluoro-3-methyl-7-oxo-2,3-dihydro-7H-[1,4]oxazino[2,3,4-ij]quinoline-6-carboxylic acid] | 1 | > 32 µg/mL | >32 | 0.5 | 16 | 4 | >32 | 32 | 0.5 | 2 | >32 | 16 | > 32 µg/mL | – | – | – | – | – | – | – | –
4 | C[C@H]1COc2c(N3CC[C@@H](N)C3)c(F)cc3c(=O)c(C(=O)O)cn1c23 [KSN-L44-D, (S)-10-((R)-3-aminopyrrolidin-1-yl)-9-fluoro-3-methyl-7-oxo-2,3-dihydro-7H-[1,4]oxazino[2,3,4-ij]quinoline-6-carboxylic acid] | 0.5-1 | 4 µg/mL (≈ 11.5 µM) | – | ≤0.125 | ≤0.125 | 1-4 | 32 | 32 | 0.25 | 2 | 0.25-0.5 | 1 | 32 µg/mL (≈ 92.1 µM) | – | – | – | – | – | – | – | –
5 | C[C@H]1COc2c(N3CC[C@H](Nc4ncc(N)cn4)C3)c(F)cc3c(=O)c(C(=O)O)cn1c23 [KSN-L62, (S)-10-((S)-3-((5-aminopyrimidin-2-yl)amino)pyrrolidin-1-yl)-9-fluoro-3-methyl-7-oxo-2,3-dihydro-7H-[1,4]oxazino[2,3,4-ij]quinoline-6-carboxylic acid] | ≤0.125 | 16 µg/mL (≈ 36.3 µM) | 4 | 1 | 1 | ≤0.125 | 4 | 1 | ≤0.125 | 0.25 | 8 | 1 | – | – | – | – | – | – | – | – | –
6 | CCn1cc(C(=O)O)c(=O)c2cc(F)c(N3CCN(Cc4cc(=O)[nH]c5ccccc45)CC3)cc21 [ML-77-059] | – | – | – | – | – | – | – | – | – | – | – | – | – | >32 | >32 | 16 | >32 | >32 | >32 | 16-32 | MIC (PA13437; Normal (no PMBN)): > 32 µg/mL; MIC (AYE; [3]): >32; MIC (Ab17978; [4]): 32; MIC (PA01; [5]): >32; MIC (VRE12204): >32
7 | C[C@H]1COc2c(N3CCN(c4ccncn4)CC3)c(F)cc3c(=O)c(C(=O)O)cn1c23 [ML-83-001, (S)-9-fluoro-3-methyl-7-oxo-10-(4-(pyrimidin-4-yl)piperazin-1-yl)-2,3-dihydro-7H-[1,4]oxazino[2,3,4-ij]quinoline-6-carboxylic acid] | – | – | – | – | – | – | – | – | – | – | – | – | – | 0.25 | 64 | 8 | 0.25 | 4 | 4 | 0.06 | MIC (KP13368; KP13368, +PMBN, in µg/mL): 4; MIC (PA13437; +PMBN): 32 µg/mL (≈ 75.2 µM); MIC (AYE; AYE, +PMBN, in µg/mL): 64; MIC (M6; M6, +PMBN, in µg/mL): 0.5; MIC (Ab17978; Ab17978, +PMBN, in µg/mL): 1; MIC (Ab17978; [4]): 4; MIC (PA01; PA01, +PMBN, in µg/mL): 1; MIC (PA01; [5]): 32; MIC (VRE12204): 2
8 | C[C@H]1COc2c(N3CCCN(c4cnccn4)CC3)c(F)cc3c(=O)c(C(=O)O)cn1c23 [ML-83-041 (5.16), (S)-9-fluoro-3-methyl-7-oxo-10-(4-(pyrazin-2-yl)-1,4-diazepan-1-yl)-2,3-dihydro-7H-[1,4]oxazino[2,3,4-ij]quinoline-6-carboxylic acid] | – | – | – | – | – | – | – | – | – | – | – | – | – | 0.5-1 | 16-32 | 2 | 1 | 8 | 4-8 | ≤0.125 | MIC (AYE; [3]): 64-128; MIC (EC12923; EC12923, in µg/mL): 1-2; MIC (Ab17978; [4]): 1; MIC (PA01; [5]): 16-32; MIC (VRE12204): 4
